This passage reports IC50 results from patent publication US6307056A, “4-aryloxindoles” (Hoffman-La Roche Inc., priority 1999, dated 2001).

Molecules are shown by their SMILES. Structures can show the parent of a compound that is named as a salt.

Sequence of rat SAPK (isoform b) (P49187 whole entry, canonical isoform): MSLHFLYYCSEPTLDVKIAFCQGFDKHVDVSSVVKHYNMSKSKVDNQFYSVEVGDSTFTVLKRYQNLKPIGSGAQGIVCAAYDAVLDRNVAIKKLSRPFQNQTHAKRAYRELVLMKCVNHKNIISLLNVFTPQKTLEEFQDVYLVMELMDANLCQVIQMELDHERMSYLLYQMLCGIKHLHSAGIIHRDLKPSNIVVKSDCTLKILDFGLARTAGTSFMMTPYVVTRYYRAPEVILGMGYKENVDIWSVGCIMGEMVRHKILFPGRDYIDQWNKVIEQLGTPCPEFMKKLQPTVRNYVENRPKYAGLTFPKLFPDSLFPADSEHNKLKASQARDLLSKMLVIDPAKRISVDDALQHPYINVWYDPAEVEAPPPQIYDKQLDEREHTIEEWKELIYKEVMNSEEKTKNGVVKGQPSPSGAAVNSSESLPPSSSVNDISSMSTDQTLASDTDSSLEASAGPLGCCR

The subject of the first assay is TNF-α. Briefly: U937 Cell-Based Assay, TNF-α ELISA after LPS stimulation. The following applies: Homo sapiens, U-937, read-out: IC50 in U837 Cells TNF, PMA-differentiated U937 cells, 1 hour preincubation, 24 hours, supernatant ELISA. On the procedure:
(§1) U937 Cell-Based Assay The U937 cells, a human monocyte/macrophage cell line, was obtained from the ATTC and grown in the recommended medium. These cells when stimulated with lipopolysaccharide (LPS) release TNF, another inflammatory mediator implicated in the JNK pathway ([…] et al., supra) and IL-6. In this assay the ability of a test compound to block TNF expression is evaluated. The U937 cells were suspension cells which when stimulated with phorbol myristate acetate (PMA) (Sigma, St. Louis, Mo.) became adherent. After PMA stimulation the cells were washed in cell culture medium and plated at 1×10^5 cells/well in 96 well plates. The following day the test compounds and dexamethasone control (Sigma, St. Louis, Mo.) were added to the cells for 1 hour of preincubation. Then the cells were stimulated with LPS (Sigma, St. Louis, Mo.). After an additional 24 hours of incubation the supernatants were removed and assayed for TNF-α and IL-6 by ELISA. The IL-6 ELISA was run as described previously for the MG63 assay. […] The intensity of the color (measured at 450 nm) is proportional to the amount of TNF-α or IL-6 produced by the U937 cells upon exposure to LPS and the test compounds. […] IC50 values for each test compound were determined from the linear regression of a plot of the logarithm of the concentration of compound versus amount of TNF-α or IL-6 secreted. […]
In general terms: An ELISA detects its analyte on a solid surface through an enzyme-linked reagent.
As to `Nc1cccc(-c2cccc3c2/C(=C/c2ccc[nH]2)C(=O)N3)c1` [D, (Z)-4-(3-Aminophenyl)-1,3-dihydro-3-[(1H-pyrrol-2-yl)methylene]-2H-indol-2-one hydrochloride salt], the IC50 (usually the point on the concentration scale where inhibition reaches its midpoint) worked out at 1.17e+06 pM.
On to `COC(=O)c1ccc(-c2c(NC(=O)Cc3cccs3)ccc3c2/C(=C/c2[nH]ccc2OC)C(=O)N3)cc1` [WW, (Z)-4-[2,3-Dihydro-3-[(3-methoxy-1H-pyrrol-2-yl)methylene]-2-oxo-5-[(2-thienylacetyl)amino]-1H-indol-4-yl]-benzoic Acid Methyl Ester], for which the IC50 is 1.35e+06 pM.

Another assay concerns IL-6. As to the kind of experiment: U937 Cell-Based Assay, IL-6 ELISA after LPS stimulation. The following applies: Homo sapiens, U-937, PMA-differentiated U937 cells, 1 hour preincubation, 24 hours, supernatant ELISA, read-out: IC50 (pM) in U837 Cells IL6. On the procedure: as §1
In the case of `Nc1cccc(-c2cccc3c2/C(=C/c2ccc[nH]2)C(=O)N3)c1` [D, (Z)-4-(3-Aminophenyl)-1,3-dihydro-3-[(1H-pyrrol-2-yl)methylene]-2H-indol-2-one hydrochloride salt], the IC50 is 6.33e+06 pM.
With `COC(=O)c1ccc(-c2c(NC(=O)Cc3cccs3)ccc3c2/C(=C/c2[nH]ccc2OC)C(=O)N3)cc1` [WW, (Z)-4-[2,3-Dihydro-3-[(3-methoxy-1H-pyrrol-2-yl)methylene]-2-oxo-5-[(2-thienylacetyl)amino]-1H-indol-4-yl]-benzoic Acid Methyl Ester], the IC50 is 7.8e+06 pM.

Another assay has as its target rat SAPK (isoform b) (Rattus norvegicus, UniProt P49187). As to the kind of experiment: SAPK FlashPlate Assay (c-Jun phosphorylation). It counts as biochemical. The conditions noted are these: purified rat SAPK activated by MEKK-1/MKK4, GST-c-Jun substrate, 33P-ATP, 30 minutes at 37° C. On the procedure:
"IC50 " refers to the concentration of a particular 4-aryloxindole or 4-heteroaryloxidole required to inhibit 50% of the SAPK protein kinase catalytic activity. IC50 can be measured, inter alia, using the assay described herein in Example 66.
Human JNK is highly homologous to rat SAPK. To measure the inhibitory activity of test compounds, the compounds were tested in the rat SAPK assay.
For the SAPK assay, purified GST-c-Jun (a chimeric protein containing c-Jun, a natural substrate of JNK) was coated on 96 well FlashPlates (New England Nuclear, Boston, Mass.). Purified rat SAPK (isoform b, Kyriakis et al. supra) was preincubated with preparations containing MEKK-1 and MKK4 for 30 minutes at 37° C. in assay buffer containing 25 mM HEPES, pH 7.5, 150 mM NaCl, 20 mM MgCl2, 2 mM DTT, 0.001% Tween 20, 1 mM ATP freshly added. In the preincubation step, MEKK-1 phosphorylates and activates MKK4, which in turn phosphorylates and activates SAPK. The activated SAPK was then added to the c-Jun coated FlashPlates along with ^33 P-ATP ([…] per reaction) and test compounds. The plates were incubated for 30 minutes at 37° C., then washed with PBS, 0.01% Tween 20, and counted in the Topcount scintillation counter (Packard Instrument Co., Downers Grove, Ill.). Dilutions of compounds were tested in duplicate in each assay. The percent inhibition of c-Jun phosphorylation (a measure of inhibition of SAPK activity) was determined by the following formula: [formula]
where "test compound" refers to the average counts per minute of the test duplicates, "nonspecific" refers to the average counts per minute when no SAPK was added, and "total" refers to the average counts per minute when no compound was added.
The compound `Nc1cccc(-c2cccc3c2/C(=C/c2ccc[nH]2)C(=O)N3)c1` [Compound C, (Z)-4-(3-Aminophenyl)-1,3-dihydro-3-[(1H-pyrrol-2-yl)methylene]-2H-indol-2-one] returned an IC50 of under 0.15 µM.
Turning to `COc1cc[nH]c1/C=C1\C(=O)Nc2cccc(-c3cccc(N)c3)c21` [EE, (Z)-4-(3-Aminophenyl)-1,3-dihydro-3-[(3-methoxy-1H-pyrrol-2-yl)methylene]-2H-indol-2-one], the concentration for half-maximal inhibition (IC50) is under 0.15 µM.
In turn, `COc1cc[nH]c1/C=C1\C(=O)Nc2cccc(-c3ccccc3)c21` [GG, (Z)-1,3-Dihydro-4-phenyl-3-[(3-methoxy-1H-pyrrol-2-yl)methylene]-2H-indol-2-one] showed an IC50 of under 0.15 µM.
For `COc1cc[nH]c1/C=C1\C(=O)Nc2ccc([N+](=O)[O-])c(-c3ccc(O)cc3)c21` [JJ, (Z)-1,3-Dihydro-4-(4-hydroxyphenyl)-3-[(3-methoxy-1H-pyrrol-2-yl)methylene]-5-nitro-2H-indol-2-one], the IC50 was under 0.15 µM.
Same read-out and setting: to `COc1cc[nH]c1/C=C1\C(=O)Nc2ccc([N+](=O)[O-])c(-c3ccccc3)c21` [KK, (Z)-1,3-Dihydro-3-[(3-methoxy-1H-pyrrol-2-yl)methylene]-5-nitro-4-phenyl-2H-indol-2-one] belongs under 0.15 µM; to `COc1cc[nH]c1/C=C1\C(=O)Nc2ccc(NC(=O)Cc3cccs3)c(-c3ccccc3)c21` [LL, (Z)-N-[2,3-Dihydro-3-[(3-methoxy-1H-pyrrol-2-yl)methylene]-2-oxo-4-phenyl-1H-indol-5-yl]-2-thiopheneacetamide], under 0.15 µM; to `COc1cc[nH]c1/C=C1\C(=O)Nc2cccc(-c3ccc4[nH]ccc4c3)c21` [MM, (Z)-1,3-Dihydro-4-(5-indolyl)-3-[(3-methoxy-1H-pyrrol-2-yl)methylene]-2H-indol-2-one], under 0.15 µM.
On the same count and under the same terms, to `COc1cc[nH]c1/C=C1\C(=O)Nc2ccc(N)c(-c3ccc(O)cc3)c21` [NN, (Z)-5-Amino-1,3-dihydro-4-(4-hydroxyphenyl)-3-[(3-methoxy-1H-pyrrol-2-yl)methylene]-2H-indol-2-one] belongs under 0.15 µM; to `COc1cc[nH]c1/C=C1\C(=O)Nc2ccc(NC(=O)Cc3cccs3)c(-c3ccc(O)cc3)c21` [OO, (Z)-N-[2,3-Dihydro-4-(4-hydroxyphenyl)-3-[(3-methoxy-1H-pyrrol-2-yl)methylene]-2-oxo-1H-indol-5-yl]-2-thiopheneacetamide], under 0.15 µM; to `COc1cc[nH]c1/C=C1\C(=O)Nc2ccc(N)c(-c3ccccc3)c21` [PP, (Z)-5-Amino-1,3-dihydro-3-[(3-methoxy-1H-pyrrol-2-yl)methylene]-4-phenyl-2H-indol-2-one], under 0.15 µM.
In the case of `COc1cc[nH]c1/C=C1\C(=O)Nc2ccc(NC(=O)Cc3cccs3)c(-c3ccc4[nH]ccc4c3)c21` [QQ, (Z)-N-[2,3-dihydro-4-(5-indolyl)-3-[(3-methoxy-1H-pyrrol-2-yl)methylene]-2-oxo-1H-indol-5-yl]-2-thiopheneacetamide], the half-inhibitory concentration (IC50) is under 0.15 µM.
Same read-out and setting: to `COC(=O)c1ccc(-c2c([N+](=O)[O-])ccc3c2/C(=C/c2[nH]ccc2OC)C(=O)N3)cc1` [RR, (Z)-4-[2,3-Dihydro-3-[(3-methoxy-1H-pyrrol-2-yl)methylene]-5-nitro-2oxo-1H-indol-4-yl]-benzoic acid methyl ester] belongs under 0.15 µM; to `COC(=O)c1ccc(-c2c(N)ccc3c2/C(=C/c2[nH]ccc2OC)C(=O)N3)cc1` [SS, (Z)-4-[5-Amino-2,3-dihydro-3-[(3-methoxy-1H-pyrrol-2-yl)methylene]-2-oxo-1H-indol-4-yl]-benzoic acid methyl ester], under 0.15 µM; to `COc1cc[nH]c1/C=C1\C(=O)Nc2cccc(-c3cccc4[nH]ccc34)c21` [TT, (Z)-1,3-Dihydro-4-(4-indolyl)-3-[(3-methoxy-1H-pyrrol-2-yl)methylene]-2H-indol-2-one], under 0.15 µM.
Regarding `COc1cc[nH]c1/C=C1\C(=O)Nc2cccc(-c3ccc4cc[nH]c4c3)c21` [UU, (Z)-1,3-Dihydro-4-(6-indolyl)-3-[(3-methoxy-1H-pyrrol-2-yl)methylone]-2H-indol-2-one], the concentration for half-maximal inhibition (IC50) is under 0.15 µM.
The same measure, in the same setting: to `COc1cc[nH]c1/C=C1\C(=O)Nc2ccc(NC(=O)Cc3cccs3)c(-c3ccc4cc[nH]c4c3)c21` [VV, (Z)-N-[2,3-Dihydro-4-(6-indolyl)-3-[(3-methoxy-1H-pyrrol-2-yl)methylene]-2-oxo-1H-indol-5-yl]-2-thiopheneacetamide] belongs under 0.15 µM; to `COC(=O)c1ccc(-c2c(NC(=O)Cc3cccs3)ccc3c2/C(=C/c2[nH]ccc2OC)C(=O)N3)cc1` [WW, (Z)-4-[2,3-Dihydro-3-[(3-methoxy-1H-pyrrol-2-yl)methylene]-2-oxo-5-[(2-thienylacetyl)amino]-1H-indol-4-yl]-benzoic Acid Methyl Ester], under 0.15 µM; to `COc1cc[nH]c1/C=C1\C(=O)Nc2ccc(NC(=O)Cc3cccs3)c(-c3ccc(C(=O)O)cc3)c21` [XX, (Z)-4-[2,3-Dihydro-3-[(3-methoxy-1H-pyrrol-2-yl)methylene]-2-oxo-5-[(2-thienylacetyl)amino]-1H-indol-4-yl]-benzoic acid], under 0.15 µM.
